The subject of one series is HepG2 cancer cells. The experiment in a line: Anticancer activity, cell viability by CCK-8, HepG2. The format is cell-based. Conditions: HepG2, 10 μM, 72 hours. The procedure, abridged: (§1)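 HS746T or HepG2 cells seeded at 4,000 cells/well, left 24 h, then exposed to compounds for 72 h. Viability measured by CCK-8 and expressed as % of untreated control.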
In series [1] the target is T1, human recombinant MLK3 protein (Homo sapiens, UniProt Q16584).
T1 construct: purchased Eurofins
T1 sequence (Q16584 whole entry): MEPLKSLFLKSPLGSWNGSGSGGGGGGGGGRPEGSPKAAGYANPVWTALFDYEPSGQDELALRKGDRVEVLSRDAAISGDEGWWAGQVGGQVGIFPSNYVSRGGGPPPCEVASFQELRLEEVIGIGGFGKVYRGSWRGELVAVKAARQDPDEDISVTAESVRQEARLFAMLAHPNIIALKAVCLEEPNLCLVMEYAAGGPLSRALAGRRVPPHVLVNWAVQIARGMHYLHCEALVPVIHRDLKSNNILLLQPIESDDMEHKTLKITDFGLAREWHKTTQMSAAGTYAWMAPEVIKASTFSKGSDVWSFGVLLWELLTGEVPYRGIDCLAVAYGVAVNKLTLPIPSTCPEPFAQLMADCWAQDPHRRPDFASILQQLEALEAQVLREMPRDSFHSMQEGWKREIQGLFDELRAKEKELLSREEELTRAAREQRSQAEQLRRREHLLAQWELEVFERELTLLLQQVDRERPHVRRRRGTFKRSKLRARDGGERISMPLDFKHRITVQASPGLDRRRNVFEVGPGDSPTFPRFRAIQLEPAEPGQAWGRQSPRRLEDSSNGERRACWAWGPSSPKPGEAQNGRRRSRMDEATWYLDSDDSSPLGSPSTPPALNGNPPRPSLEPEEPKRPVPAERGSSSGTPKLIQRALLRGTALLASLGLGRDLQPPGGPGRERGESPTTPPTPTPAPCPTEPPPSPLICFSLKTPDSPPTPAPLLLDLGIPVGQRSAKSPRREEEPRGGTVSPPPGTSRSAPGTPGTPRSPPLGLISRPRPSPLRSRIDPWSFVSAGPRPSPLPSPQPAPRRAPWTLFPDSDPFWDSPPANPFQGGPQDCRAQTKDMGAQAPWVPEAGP
Description: MLK3 kinase activity assay (Eurofins, gamma-33P-ATP, filtermat scintillation counting). The format is biochemical. Conditions: human recombinant MLK3, 120 minutes at room temperature.

The next series concerns HS746T cancer cells. Description: Anticancer activity, cell viability by CCK-8, HS746T. The format is cell-based. The settings on record: 72 hours. The procedure, abridged: as §1
Series [2] concerns the target T2, human recombinant LRRK2 protein (Homo sapiens, UniProt Q5S007).
T2 construct: purchased Eurofins
The experiment in a line: LRRK2 kinase activity assay (Eurofins, gamma-33P-ATP, filtermat scintillation counting). In kind it is biochemical. Conditions: human recombinant LRRK2, 40 minutes at room temperature.

By IC50 is commonly meant the concentration at which inhibition is half-maximal.

T2 sequence (Q5S007 whole entry): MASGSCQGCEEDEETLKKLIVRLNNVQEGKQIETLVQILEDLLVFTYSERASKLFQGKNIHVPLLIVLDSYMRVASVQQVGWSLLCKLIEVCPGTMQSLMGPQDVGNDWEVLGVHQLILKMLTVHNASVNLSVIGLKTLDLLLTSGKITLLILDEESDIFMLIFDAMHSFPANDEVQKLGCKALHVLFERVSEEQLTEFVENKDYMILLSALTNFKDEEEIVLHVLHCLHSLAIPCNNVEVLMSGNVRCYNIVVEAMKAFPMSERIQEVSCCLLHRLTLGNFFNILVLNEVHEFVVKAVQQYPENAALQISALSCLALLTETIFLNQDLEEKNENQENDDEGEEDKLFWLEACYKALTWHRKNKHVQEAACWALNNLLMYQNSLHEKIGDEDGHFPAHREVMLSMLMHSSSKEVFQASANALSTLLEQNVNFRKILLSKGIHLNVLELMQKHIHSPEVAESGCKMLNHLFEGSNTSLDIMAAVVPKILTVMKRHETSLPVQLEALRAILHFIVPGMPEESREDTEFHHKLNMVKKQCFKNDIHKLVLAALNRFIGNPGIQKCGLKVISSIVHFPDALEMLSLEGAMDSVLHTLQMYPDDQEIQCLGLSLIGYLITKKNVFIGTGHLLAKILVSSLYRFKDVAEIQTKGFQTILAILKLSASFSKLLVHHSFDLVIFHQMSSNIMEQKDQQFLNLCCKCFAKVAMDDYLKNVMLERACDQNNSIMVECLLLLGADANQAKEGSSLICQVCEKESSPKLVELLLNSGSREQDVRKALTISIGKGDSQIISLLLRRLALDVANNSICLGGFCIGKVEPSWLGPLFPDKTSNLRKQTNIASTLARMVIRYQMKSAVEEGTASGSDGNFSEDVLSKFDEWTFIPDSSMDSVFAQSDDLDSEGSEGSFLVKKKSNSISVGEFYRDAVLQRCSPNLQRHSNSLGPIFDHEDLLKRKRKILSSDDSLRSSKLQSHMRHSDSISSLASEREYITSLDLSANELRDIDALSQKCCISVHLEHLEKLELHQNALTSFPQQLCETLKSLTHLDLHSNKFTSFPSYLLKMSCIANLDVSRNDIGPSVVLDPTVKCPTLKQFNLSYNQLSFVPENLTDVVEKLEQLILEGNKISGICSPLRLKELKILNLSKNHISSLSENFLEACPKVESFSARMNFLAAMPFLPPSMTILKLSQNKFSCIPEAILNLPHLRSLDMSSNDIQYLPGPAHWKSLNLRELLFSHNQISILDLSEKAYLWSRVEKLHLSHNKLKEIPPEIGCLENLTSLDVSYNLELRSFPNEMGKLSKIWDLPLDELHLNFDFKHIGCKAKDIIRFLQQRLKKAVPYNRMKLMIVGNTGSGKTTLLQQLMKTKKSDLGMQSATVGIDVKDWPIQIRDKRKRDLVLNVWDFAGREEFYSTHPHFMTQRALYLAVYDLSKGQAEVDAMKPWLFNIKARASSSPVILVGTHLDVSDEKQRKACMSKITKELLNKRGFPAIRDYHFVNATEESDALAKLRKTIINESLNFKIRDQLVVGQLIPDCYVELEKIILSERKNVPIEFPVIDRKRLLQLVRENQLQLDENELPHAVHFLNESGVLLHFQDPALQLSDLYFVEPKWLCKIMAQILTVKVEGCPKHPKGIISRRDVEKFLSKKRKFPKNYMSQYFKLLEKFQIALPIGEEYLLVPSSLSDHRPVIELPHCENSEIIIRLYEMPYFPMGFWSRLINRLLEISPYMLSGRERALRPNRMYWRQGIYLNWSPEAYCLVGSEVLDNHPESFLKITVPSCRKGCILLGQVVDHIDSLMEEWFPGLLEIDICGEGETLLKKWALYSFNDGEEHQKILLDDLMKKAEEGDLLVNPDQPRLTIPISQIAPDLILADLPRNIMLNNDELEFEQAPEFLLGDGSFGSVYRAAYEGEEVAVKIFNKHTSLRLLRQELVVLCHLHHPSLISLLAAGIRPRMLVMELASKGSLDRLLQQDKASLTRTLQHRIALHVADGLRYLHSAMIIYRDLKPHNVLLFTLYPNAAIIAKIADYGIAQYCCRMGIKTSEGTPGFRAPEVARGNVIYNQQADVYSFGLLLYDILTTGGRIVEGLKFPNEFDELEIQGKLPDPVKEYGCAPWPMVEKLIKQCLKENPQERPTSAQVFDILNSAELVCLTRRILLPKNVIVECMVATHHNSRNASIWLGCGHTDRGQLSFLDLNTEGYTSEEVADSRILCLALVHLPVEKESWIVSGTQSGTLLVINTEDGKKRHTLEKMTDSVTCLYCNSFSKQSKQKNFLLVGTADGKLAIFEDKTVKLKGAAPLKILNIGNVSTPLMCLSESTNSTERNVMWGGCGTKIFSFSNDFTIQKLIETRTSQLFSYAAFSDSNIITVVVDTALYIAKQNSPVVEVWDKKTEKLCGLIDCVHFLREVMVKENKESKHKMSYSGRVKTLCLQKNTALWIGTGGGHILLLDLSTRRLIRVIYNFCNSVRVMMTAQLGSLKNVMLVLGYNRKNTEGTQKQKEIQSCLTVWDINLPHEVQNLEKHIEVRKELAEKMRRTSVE

For the compound `CP(C)(=O)c1ccccc1Nc1nc(Nc2ccc3[nH]nc(-c4ccccc4)c3c2)ncc1Cl` [compound 96, (2-((5-chloro-2-((3-phenyl-1H-indazol-5-yl)amino)pyrimidin-4-yl)amino)phenyl)dimethylphosphine oxide], the “Cell viability (% of Con. 10 μM) HepG2” value with HepG2 cancer cells was 15 % of Con. Also, the IC50 in series [1] and in series [2] was 1 to 10 nM in each case. Besides, in the series with HS746T cancer cells, the “Cell viability (% of Con. 10 μM) HS746T” value was 10 % of Con.
`Cc1ccc(Nc2ncc(Cl)c(Nc3ccccc3P(C)(C)=O)n2)c2[nH]cc(C#N)c12` [compound 70, 7-((5-chloro-4-((2-(dimethylphosphoryl)phenyl)amino)pyrimidin-2-yl)amino)-4-methyl-1H-indole-3-carbonitrile]: the “Cell viability (% of Con. 10 μM) HepG2” value in the series on HepG2 cancer cells is on record as 30 % of Con. In addition, the IC50 in series [1] was 10 to 100 nM; in series [2], 1 to 10 nM. In the series on HS746T cancer cells, the “Cell viability (% of Con. 10 μM) HS746T” value was 25 % of Con.
Turning to `CP(C)(=O)c1ccccc1Nc1nc(Nc2ccc3c(c2)CN(C(=O)C(F)(F)F)C3)ncc1Cl` [compound 72, 1-(5-((5-Chloro-4-((2-(dimethylphosphoryl)phenyl)amino)pyrimidin-2-yl)amino)isoindolin-2-yl)-2,2,2-trifluoroethan-1-one], the “Cell viability (% of Con. 10 μM) HepG2” value with HepG2 cancer cells is reported as 35 % of Con. The IC50 in series [1] lay within 10 to 100 nM; in series [2] it was 1 to 10 nM. The “Cell viability (% of Con. 10 μM) HS746T” value in the series on HS746T cancer cells is given as 9 % of Con.
As for `CP(C)(=O)c1ccccc1Nc1nc(Nc2ccc3c(c2)CN(C(=O)C(F)(F)F)CC3)ncc1Cl` [compound 46, 1-(7-((5-Chloro-4-((2-(dimethylphosphoryl)phenyl)amino)pyrimidin-2-yl)amino)-3,4-dihydroisoquinolin-2(1H)-yl)-2,2,2-trifluoroethan-1-one], the “Cell viability (% of Con. 10 μM) HepG2” value in the series on HepG2 cancer cells is on record as 26 % of Con. Moreover, the IC50 in series [1] and in series [2] was 1 to 10 nM in each case. For the same compound, the “Cell viability (% of Con. 10 μM) HS746T” value in the series on HS746T cancer cells was 13 % of Con.
As to `CP(C)(=O)c1ccccc1Nc1nc(Nc2ccc3[nH]nc(-c4ccc(C#N)cc4)c3c2)ncc1Cl` [compound 105, 4-(5-((5-Chloro-4-((2-(dimethylphosphoryl)phenyl)amino)pyrimidin-2-yl)amino)-1H-indazol-3-yl)benzonitrile], the “Cell viability (% of Con. 10 μM) HepG2” value with HepG2 cancer cells is 55 % of Con. Moreover, the IC50 lay within 1 to 10 nM in series [1] and 10 to 100 nM in series [2]. For the same compound, the “Cell viability (% of Con. 10 μM) HS746T” value in the series on HS746T cancer cells is 23 % of Con.
With `CP(C)(=O)c1ccccc1Nc1nc(Nc2cnc3[nH]nc(-c4cccnc4F)c3c2)ncc1Cl` [compound 98, (2-((5-Chloro-2-((3-(2-fluoropyridin-3-yl)-1H-pyrazolo[3,4-b]pyridin-5-yl)amino)pyrimidin-4-yl)amino)phenyl)dimethylphosphine oxide], in the series on HepG2 cancer cells, the “Cell viability (% of Con. 10 μM) HepG2” value is on record as 27 % of Con. Moreover, the IC50 in series [1] and in series [2] was 1 to 10 nM throughout. The “Cell viability (% of Con. 10 μM) HS746T” value in the series with HS746T cancer cells is 10 % of Con.
As for `CP(C)(=O)c1ccccc1Nc1nc(Nc2ccc3[nH]nc(-c4ccc(OC(F)(F)F)cc4)c3c2)ncc1Cl` [compound 110, (2-((5-Chloro-2-((3-(4-(trifluoromethoxy)phenyl)-1H-indazol-5-yl)amino)pyrimidin-4-yl)amino)phenyl)dimethylphosphine oxide], the “Cell viability (% of Con. 10 μM) HepG2” value in the series on HepG2 cancer cells is 24 % of Con. Also, the values for the concentration for half-maximal inhibition (IC50) in series [1] and in series [2] were 1 to 10 nM and 10 to 100 nM, respectively. The “Cell viability (% of Con. 10 μM) HS746T” value in the series with HS746T cancer cells is recorded as 12 % of Con.
On to `CC(C)C1c2cc(Nc3ncc(F)c(NC4CCN(S(C)(=O)=O)CC4)n3)ccc2CCN1C(=O)C(F)(F)F` (centres unmarked) [compound 58, 2,2,2-Trifluoro-1-(7-((5-fluoro-4-((1-(methylsulfonyl)piperidin-4-yl)amino)pyrimidin-2-yl)amino)-1-isopropyl-3,4-dihydroisoquinolin-2(1H)-yl)ethan-1-one], for which, in the series on HepG2 cancer cells, the “Cell viability (% of Con. 10 μM) HepG2” value is given as 83 % of Con. Besides, the figures for the IC50 in series [1] and in series [2] were above 1000 nM and 100 to 1000 nM, respectively. For the same compound, in the series with HS746T cancer cells, the “Cell viability (% of Con. 10 μM) HS746T” value was 85 % of Con.
For the compound `CC1(C)CN(C(=O)C(F)(F)F)Cc2cc(Nc3ncc(Cl)c(Nc4ccccc4P(C)(C)=O)n3)ccc21` [compound 50, 1-(7-((5-Chloro-4-((2-(dimethylphosphoryl)phenyl)amino)pyrimidin-2-yl)amino)-4,4-dimethyl-3,4-dihydroisoquinolin-2(1H)-yl)-2,2,2-trifluoroethan-1-one], the “Cell viability (% of Con. 10 μM) HepG2” value in the series with HepG2 cancer cells was 20 % of Con. For the same compound, the IC50 in series [1] and in series [2] was 1 to 10 nM each time. For the same compound, the “Cell viability (% of Con. 10 μM) HS746T” value in the series on HS746T cancer cells is on record as 2 % of Con.
Take `CC(=O)N1CC=C(c2n[nH]c3ccc(Nc4ncc(Cl)c(Nc5ccccc5P(C)(C)=O)n4)cc23)CC1` [compound 99, 1-(4-(5-((5-Chloro-4-((2-(dimethylphosphoryl)phenyl)amino)pyrimidin-2-yl)amino)-1H-indazol-3-yl)-3,6-dihydropyridin-1(2H)-yl)ethan-1-one]: the “Cell viability (% of Con. 10 μM) HepG2” value in the series on HepG2 cancer cells was 26 % of Con. Besides, the IC50 in series [1] and in series [2] was 1 to 10 nM in each case. The “Cell viability (% of Con. 10 μM) HS746T” value in the series with HS746T cancer cells is 9 % of Con.
Turning to `CCCn1cc(-c2n[nH]c3ccc(Nc4ncc(Cl)c(Nc5ccccc5P(C)(C)=O)n4)cc23)cn1` [compound 95, (2-((5-Chloro-2-((3-(1-propyl-1H-pyrazol-4-yl)-1H-indazol-5-yl)amino)pyrimidin-4-yl)amino)phenyl)dimethylphosphine oxide], in the series on HepG2 cancer cells, the “Cell viability (% of Con. 10 μM) HepG2” value was 39 % of Con. Besides, the IC50 in series [1] and in series [2] was 1 to 10 nM in each case. Besides, the “Cell viability (% of Con. 10 μM) HS746T” value in the series on HS746T cancer cells is 19 % of Con.
For `Cc1ccc(-c2n[nH]c3ccc(Nc4ncc(Cl)c(Nc5ccccc5P(C)(C)=O)n4)cc23)cc1Cl` [compound 112, (2-((5-Chloro-2-((3-(3-chloro-4-methylphenyl)-1H-indazol-5-yl)amino)pyrimidin-4-yl)amino)phenyl)dimethylphosphine oxide], in the series with HepG2 cancer cells, the “Cell viability (% of Con. 10 μM) HepG2” value is 6 % of Con. In addition, the IC50 in series [1] lay within 1 to 10 nM; in series [2], 10 to 100 nM. In addition, the “Cell viability (% of Con. 10 μM) HS746T” value in the series on HS746T cancer cells is on record as 7 % of Con.
Taken in the same sequence, the figures for `CP(C)(=O)c1ccccc1Nc1nc(Nc2ccc3c(c2)CNCC3)ncc1Cl` [compound 47, (2-((5-Chloro-2-((1,2,3,4-tetrahydroisoquinolin-7-yl)amino)pyrimidin-4-yl)amino)phenyl)dimethylphosphine oxide] were 24 % of Con, 1 to 10 nM, 1 to 10 nM and 8 % of Con.
For the compound `CP(C)(=O)c1ccccc1Nc1nc(Nc2ccc3[nH]nc(-c4ccc(Cl)c(C(F)(F)F)c4)c3c2)ncc1Cl` [compound 111, (2-((5-Chloro-2-((3-(4-chloro-3-(trifluoromethyl)phenyl)-1H-indazol-5-yl)amino)pyrimidin-4-yl)amino)phenyl)dimethylphosphine oxide], the “Cell viability (% of Con. 10 μM) HepG2” value with HepG2 cancer cells is 7 % of Con. Further, the IC50 in series [1] is 1 to 10 nM; in series [2], 10 to 100 nM. Moreover, the “Cell viability (% of Con. 10 μM) HS746T” value in the series with HS746T cancer cells was 7 % of Con.
